Measured values taken from patent US20050021241A1, “Gain of function sorting for drug discovery and development” (priority 2003, published 2005).

Legend:
[1] = target: T1, S3.36 A variant of the 5HT2 A receptor (Homo sapiens, UniProt P28223, S159A); assay: Ca2+i mobilization response (Indo-1, flow cytometry) of cells expressing variant serotonin receptor; assay type: cell-based
T1 construct: expressed in transfected cells
Text: Step 1: To observe GOF behavior it is necessary to understand the range of compound concentration that activates the wild type receptor (WT). GOF variants will respond to concentrations of the test compound at least 5 fold lower than the minimal concentration that activates the WT. An illustration is shown in FIG. 18 where a dose-response curve for one null function mutant receptor (NF), the serotonin 2 A receptor (5 HT2 A) mutant 5.46, and the WT are shown in the lower graph. The two curves are virtually identical. […] At very low concentrations, only the GOF 3.36 mutant bearing cells are isolated, and the WT and NF 5.46 mutant are only selected as the compound concentration is raised to relatively high concentrations. It will also be necessary to understand the time kinetics of the WT response so that an appropriate time window (TW) region of the response can be selected for the analysis and sort.
FIG. 18 illustrates the results obtained during steps of GOF sorting of variant Human Serotonin Receptor Type 2A populations. Three populations of cells containing one of three versions of the human serotonin receptor type 2A were stained three distinct “colors” recognizable by the FACS. The populations were combined in equal proportions into one population. One mutant is the S3.36 A, the other mutant is the S5.46 A mutant and the third group is the wild type receptor (WT). The cells were also loaded with the Ca^2+i indicator dye, indol, so that receptor-mediated signaling events could be monitored through the Ca^2+i mobilization response. The combined population was stimulated with increasing concentrations of the test compound, naphthyl piperazine, and the percentage of cells within each colored subpopulation showing a threshold Ca^2+i response was quantified. […] The sorted cells were then re-analyzed to evaluate the subpopulation from which they were derived, based on the distinct “color” used to stain each subpopulation. The identity of the sorted populations that were taken from sorting at several different compound concentrations is shown in the bottom half of the figure. […] At the high and low ends of the concentration range there was no selective responsiveness by the S3.36 A variant cells, and the FACS selected each of the populations equally.
GOF sorting enhances drug discovery by providing the ability to identify in a few months the Gain of Function (GOF) receptor variants that normally took years to identify. It was hypothesized that GOF variants could be isolated efficiently from a pool of cells, each expressing a single variant, by sorting responding cells at low concentrations of agonist, using Fluorescence Activated Cell Sorting (FACS). […]

[2] = tested on: 5 HT2 A receptor cell lines; assay: FACS sorting of responding cells from a mixture of three color-coded 5 HT2 A receptor cell lines (WT, S3.36 A, S5.46 A); assay type: cell-based, human
Text: FIG. 18 illustrates the results obtained during steps of GOF sorting of variant Human Serotonin Receptor Type 2A populations. Three populations of cells containing one of three versions of the human serotonin receptor type 2A were stained three distinct “colors” recognizable by the FACS. The populations were combined in equal proportions into one population. One mutant is the S3.36 A, the other mutant is the S5.46 A mutant and the third group is the wild type receptor (WT). The cells were also loaded with the Ca^2+i indicator dye, indol, so that receptor-mediated signaling events could be monitored through the Ca^2+i mobilization response. The combined population was stimulated with increasing concentrations of the test compound, naphthyl piperazine, and the percentage of cells within each colored subpopulation showing a threshold Ca^2+i response was quantified. […] The sorted cells were then re-analyzed to evaluate the subpopulation from which they were derived, based on the distinct “color” used to stain each subpopulation. The identity of the sorted populations that were taken from sorting at several different compound concentrations is shown in the bottom half of the figure. […] At the high and low ends of the concentration range there was no selective responsiveness by the S3.36 A variant cells, and the FACS selected each of the populations equally. […]

T1 sequence (P28223 whole entry S159A): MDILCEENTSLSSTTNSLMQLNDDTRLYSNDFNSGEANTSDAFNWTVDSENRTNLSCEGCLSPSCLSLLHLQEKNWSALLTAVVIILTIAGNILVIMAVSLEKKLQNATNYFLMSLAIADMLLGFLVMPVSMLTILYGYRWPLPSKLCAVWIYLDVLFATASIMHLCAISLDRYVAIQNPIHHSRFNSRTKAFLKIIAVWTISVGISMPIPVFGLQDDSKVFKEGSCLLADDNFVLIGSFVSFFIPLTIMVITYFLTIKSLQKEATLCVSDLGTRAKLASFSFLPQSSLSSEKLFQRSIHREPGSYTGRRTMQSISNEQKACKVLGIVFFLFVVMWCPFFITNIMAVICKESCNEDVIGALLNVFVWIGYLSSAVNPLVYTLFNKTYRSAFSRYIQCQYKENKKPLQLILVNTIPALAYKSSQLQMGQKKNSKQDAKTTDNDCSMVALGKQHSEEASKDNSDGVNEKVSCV

c1ccc2c(N3CCNCC3)cccc2c1 [Naphthyl Piperazine]
agonist concentration at which cells expressing the S3.36 A variant were becoming activated ([1]; WT and S5.46 A variant not activated at this concentration): 3 nM | fold lower EC50 of S3.36 A variant than the wild type or the S5.46 A variant ([1]; agonist dose-response, S3.36 A vs wild type or S5.46 A 5HT2 A receptor): 1,000 fold | minimum concentration that activates the 3.36 mutant cells, fold lower than that required to activate the WT ([1]; mutant 3.36 vs WT, dose-response curve FIG. 18): more than 100 fold | affinity of S3.36 A variant for the compound compared with S5.46 A and WT ([1]; percentage of cells showing a threshold Ca2+i response, increasing concentrations): greater affinity | share of GOF S3.36 A variant in the sorted population ([2]; 50-100 nM agonist concentration range): 90% | agonist concentration range of selective sorting of GOF variant S3.36 A from wild type and S5.46 A ([2]; FACS sort of responding cells, mixed pool of 3 cell lines): 10 to 300 nM
